The term IC50 denotes the midpoint of a concentration-inhibition curve. By Ki is commonly meant a measure of affinity in units of concentration, obtained from inhibition or displacement.

One data set addresses T1, alpha-2 receptors (Rattus norvegicus, UniProt P22909).
T1 sequence (P22909 1-465): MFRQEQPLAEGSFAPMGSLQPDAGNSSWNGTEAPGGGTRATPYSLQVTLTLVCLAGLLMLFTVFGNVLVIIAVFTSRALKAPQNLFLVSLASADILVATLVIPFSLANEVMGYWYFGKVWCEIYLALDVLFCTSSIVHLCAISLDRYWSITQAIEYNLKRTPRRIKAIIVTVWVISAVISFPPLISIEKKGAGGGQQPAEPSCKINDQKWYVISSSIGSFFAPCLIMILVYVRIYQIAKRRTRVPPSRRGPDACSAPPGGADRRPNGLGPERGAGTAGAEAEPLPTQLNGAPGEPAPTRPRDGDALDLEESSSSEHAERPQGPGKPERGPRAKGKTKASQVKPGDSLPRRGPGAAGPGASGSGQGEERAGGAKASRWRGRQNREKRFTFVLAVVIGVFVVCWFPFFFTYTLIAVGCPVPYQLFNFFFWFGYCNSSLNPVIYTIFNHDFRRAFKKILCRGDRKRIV
Nature of the data set: affinity for alpha-2 receptors by displacement experiments with [3H]-clonidine (rat cortex membranes). The conditions noted are these: read-out: α2-IC50. Format: binding.

Data set [1] deals with T2, serotonin-1A(5-HT1A) receptors (Rattus norvegicus, UniProt P19327).
T2 construct: The frontal cortex was dissected out; from tissue; host or cells: rat frontal cortex homogenate (Chbb:Thom strain)
T2 sequence (P19327 1-422): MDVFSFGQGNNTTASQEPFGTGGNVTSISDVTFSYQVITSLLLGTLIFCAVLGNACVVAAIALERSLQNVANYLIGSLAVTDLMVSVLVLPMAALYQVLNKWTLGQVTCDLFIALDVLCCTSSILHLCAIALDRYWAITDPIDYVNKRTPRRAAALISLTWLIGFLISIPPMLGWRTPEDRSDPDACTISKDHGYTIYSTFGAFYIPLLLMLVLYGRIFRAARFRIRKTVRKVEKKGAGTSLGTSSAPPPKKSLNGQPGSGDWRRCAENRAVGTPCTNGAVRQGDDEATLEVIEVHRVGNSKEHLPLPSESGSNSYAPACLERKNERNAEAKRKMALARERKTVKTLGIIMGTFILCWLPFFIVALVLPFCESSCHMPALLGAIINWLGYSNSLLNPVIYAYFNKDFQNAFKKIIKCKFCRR
Nature of the data set: affinity for serotonin-1A (5-HT1A) receptors by displacement experiments with [3H]-8-OH-DPAT (rat frontal cortex). Format: binding. The conditions noted are these: [3H]-8-OH-DPAT; rat frontal cortex; read-out: 5-HT1A-Ki. On the procedure:
3. […] (Method of S. J. Peroutka, J. Neurochem. 47, 529 (1986), modified according to H. Gozlan et al., J. Receptor Research 7. 195 (1987))
A male rat (Chbb:Thom strain weighing about 200 g) was decapitated. The brain was removed and placed in ice-cold buffer (50 mmol/1 tris-HCl plus hydrochloric acid ad pH =7.4 at ambient temperature). The frontal cortex was dissected out; its moist weight was determined. It was homogenised in 40 times its volume of buffer (Polytron, position 6, 10 seconds), then centrifuged for 20 minutes at 45,000×g in the refrigerated centrifuge. The pellet was washed in 100 times its volume of buffer and centrifuged again as described above. The resulting pellet was resuspended in 40 times its volume of buffer and pre-incubated for 10 minutes at 37° C. Sixty times the volume of buffer were added and centrifuging was carried out as above. The resulting pellet was washed with 100 times the volume of buffer and centrifuged as above. The pellet was resuspended in buffer (0.8 ml/10 mg) and briefly homogenised in the Polytron. This homogenised tissue was cooled in ice until ready for incubation.
Incubation was stopped by rapid filtering through Whatman GF/B filters; rinsing was carried out twice, each time with 5 ml of ice cold buffer (Filter Prep, Messrs. Ismatec). The radioactivity of the filters was determined by liquid scintillation measurement.
Specific binding is obtained from total binding minus non-specific binding.

The test system of data set [2] is hypersensitive dopamine receptor. In words: motility triggering in the mouse treated 24 hours earlier with reserpine. Format: in vivo. On the procedure:
This test determines predominantly agonistic effects on the hypersensitive dopamine receptor.
Male mice are treated 24 hours before the experiment with 5 mg/kg i.p. reserpine. The animals are kept at 25°-30° C. and treated three times with 2 ml of a 5% glucose solution in tyrode s.c. (the first time when the reserpine is given, the second time in the evening of the pre-treatment day and the third time on the morning of the test day).
[…] (The injection volume is usually 0.1 ml/10 g of body weight). 30 minutes later the groups of animals are placed in the observation cages (measuring 42 x 24 x 8 cm) and fitted with an infrared lightbeam in order to measure their activity. The value measured is the frequency with which a group of 6 mice pass through the infra-red beam within 5 minutes ("running pulses/5 minutes"; mean at n=3; mean±s.e.m. at n=6).
3 to 6 groups are tested for each substance.

The next data set deals with MPTP monkeys. In words: post-synaptic dopaminergic activity in MPTP monkeys. Format: in vivo, rhesus monkey. The settings on record: for minimal effective dose: Primates, in Macaca mulatta, im, rhesus monkeys, i.m., read-out: minimum dose (MED) required to alleviate the Parkinson's symptoms. The source says:
6. Determining the post-synaptic dopaminergic activity in MPTP monkeys (Modified Method of R. S. Burns et al., Proc. Natl. Acad. Sci. 80. 4546 (1983))
The neurotoxin 1-methyl-4-phenyl-1,2,3,6- tetrahydro-pyridine (MPTP) produces in humans and monkeys an irreversible syndrome which in its clinical, pathological, biochemical and pharmacological appearance is very similar to idiopathic Parkinson's disease (Markey et al., Nature 311, 464 (1984)). The reason for this similarity is that MPTP selectively destroys those dopaminergic nerve cells in the substantia nigra of the brain which are also lost by degenerative processes in Parkinson's disease. There is even some discussion that MPTP or an MPTP-like substance might be formed in the body and trigger Parkinson's disease (S. H. Snyder, Nature 311, 514 (1984)). Possibly because of the specific MPTP metabolism, the clinical formation of the MPTP-induced Parkinson syndrome has hitherto been detected only in humans and monkeys. The MPTP model produced in the rhesus monkey is therefore exceptionally suitable for testing the activity of post-synaptically acting dopamine agonists. For this purpose, rhesus monkeys were given MPTP in overall doses of up to about 6 mg/kg of body weight, until the following symptoms appeared: The animals were akinetic and unable to take water and food.
It is clear that with the compounds according to the invention there is no sedative effect or ataxia at a dosage which is several times the MED, which can be put down to the absence of a corresponding activity mediated by the α2- receptors.

Protocol for alpha-2 receptors: Determination of the affinity for alpha-2 receptors by displacement experiments with [^3 H] clonidine (Modified Method of B. Jarrott, W. J. Louis and R. J. Summers, Biochem. Pharmacol. 27, 141 (1979))
A male rat (Chbb:Thom strain weighing about 200 g) was killed by a blow to the back of the neck. The brain was removed and the cortex dissected out, weighed and homogenised in 25 volumes of tris buffer (50 mM tris- HCl, pH 7.50) for 30 seconds in an Ultra-Turrax at maximum speed, followed by 10° Cycles in a Potter- Elvehjem at 1400 rpm. The homogenised material was combined with tris buffer to obtain a homogenate dilution of 1:50 (based on the weight of the cortex).
1 ml aliquots of the membrane preparation were incubated for three hours at ambient temperature with 1 ml of a solution of 1 nM of [^3 H]-clonidine (2.2 TBq/mmol, Messrs. DuPont NEN) and with increasing concentrations of the test substance (10^-11 to 10^-4 M). Incubation was ended by the addition of 5 ml of ice-cold tris buffer and filtration through Whatman GF/B filters. The filters were washed twice, each time with 5 ml of ice cold buffer. The radioactivity of the filters was determined by liquid scintillation measurement in Instagel(R) (Messrs. Canberra Packard). The non-specific binding was determined in the presence of 10^-5 M of oxymetazoline (Sigma Chemical Co.).
Displacement curves were obtained from the data using the TOPFIT programming package (G. Heinzel in "Pharmacokinetics During Drug Development: Data Analysis and Evaluation Techniques", G. Bozler and J. M. van Rossum Eds., G. Fischer Verlag, Stuttgart 1982, 207).

For the compound `C=CCN1CCc2nc(N)sc2CC1` [Compound A, reference compound], the IC50 at alpha-2 receptors is 24 nM. Moreover, the Ki in data set [1] came to 4690 nM. For the same compound, the “running pulses every 5 minutes” value in data set [2] (3 mg/kg s.c.) was 50 running pulses every 5 minutes. In addition, the ED (50 running pulses/5 min) in data set [2] (Mus musculus, sc, reserpine-treated mice, s.c., read-out: DLi50 (dosage resulting in 50 running pulses every 5 minutes)) worked out at 3 mg/kg. Moreover, the Duration of activity in the data set with MPTP monkeys (0.03 mg/kg i.m. (MED)) lay in the range of 0.5 to 1 h. Further, in the data set with MPTP monkeys (MPTP-treated rhesus monkeys), the “effect on MPTP-induced symptoms” value is “temporary cessation of this phenomenon”. In addition, in the data set on MPTP monkeys, the minimal effective dose worked out at 0.03 mg/kg.

As to `N#Cc1ccc(C=CCN2CCc3nc(N)sc3CC2)cc1` [Example 14b, 2-Amino-6-(3-(4-cyano-phenyl)allyl)-4,5,7,8-tetrahydro-6H-thiazolo[5,4-d]azepine], on alpha-2 receptors, the IC50 was 500 nM. Moreover, in data set [1], the Ki came to 7800 nM. In the data set with MPTP monkeys (0.05 mg/kg i.m. (MED)), the Duration of activity was in the range of 2.0 to 5 h and the Side effects result is “none”. This compound also yielded a Duration of activity in the data set on MPTP monkeys (0.50 mg/kg i.m.) of over 5 h. Further, in the data set with MPTP monkeys, the minimal effective dose came out at 0.05 mg/kg.

Turning to `Nc1nc2c(s1)CCN(CC=Cc1ccccc1N1CCCCC1)CC2` [Example 11p, 2-Amino-6-(3-(2-(1-piperidino)phenyl)-2-propen-1-yl)-4,5,7,8-tetrahydro-6H-thiazolo[5,4-d]azepine], the IC50 on alpha-2 receptors is 3000 nM. In data set [1], the Ki was 1770 nM.

As for `Nc1nc2c(s1)CCN(CC=Cc1cccc3ccccc13)CC2` [Example 4t, 2-Amino-6-(3-(1-naphthyl)allyl)-4,5,7,8-tetrahydro-6H-thiazolo[5,4-d]azepine], the IC50 on alpha-2 receptors amounted to 460 nM. The Ki in data set [1] was determined as 350 nM.

Turning to `Nc1nc2c(s1)CCN(CC=Cc1cc3ccccc3cn1)CC2` [Example 24a, 2-Amino-6-(3-(3-isoquinolinyl)allyl)-4,5,7,8-tetrahydro-6H-thiazolo[5,4-d]azepine], the IC50 at alpha-2 receptors worked out at 900 nM. For the same compound, in data set [1], the Ki worked out at 3500 nM.

Consider `Nc1nc2c(s1)CCN(CC=Cc1cccc(OCc3ccccc3)c1)CC2` [Example 4y, 2-Amino-6-(3-(3-benzyloxy-phenyl)allyl)-4,5,7,8-tetrahydro-6H-thiazolo[5,4-d]azepine], for which the half-maximal inhibitory concentration (IC50) on alpha-2 receptors came out at 300 nM. Further, the Ki in data set [1] was 23000 nM.

As for `Nc1nc2c(s1)CCN(CC=Cc1nccc3ccccc13)CC2` [Example 7a, 2-Amino-6-(3-(1-isoquinolinyl)allyl)-4,5,7,8-tetrahydro-6H-thiazolo[5,4-d]azepine], the IC50 on alpha-2 receptors was 3100 nM. In addition, in data set [1], the Ki came out at 1100 nM.

For the compound `Nc1nc2c(s1)CCN(Cc1ccc(Cl)cc1)CC2` [Compound B, reference compound], at alpha-2 receptors, the IC50 was 410 nM. Also, in data set [2] (5 mg/kg s.c.), the “running pulses every 5 minutes” value is recorded as 22 running pulses every 5 minutes. Further, the “effectiveness in motility triggering compared with compound A” value in data set [2] (reserpine-treated mice, s.c.) is recorded as “less effective than compound A”. For the same compound, in the data set with MPTP monkeys (0.15 mg/kg i.m.), the Duration of activity is 5 h.
